The supplement of paper PMC4932681
Where a name gives a salt, the structure may show the parent alone.

Legend:
ZR-75-1 Tam2 [1] = assay: relative IC50 (midpoint of fitted logistic curve, plateau may be below 50% inhibition; CellTiter-Glo viability); higher = less potent; details: 4-OH-tamoxifen in medium 1 µM; 72 h
In short: (§1)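 Breast cancer cell lines and their resistant derivatives were seeded into 384-well plates containing library drugs at five concentrations across a 10 000-fold range, with resistant lines kept in medium with 1 μM of the selecting drug. After 72 h at 37 °C, CellTiter-Glo viability was read on a PHERAstar and normalised to vehicle-only and positive controls. Logistic dose–response fits in the Breeze pipeline gave drug sensitivity score, relative IC50 (curve midpoint) and top-dose inhibition.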

T-47D Tam2 [2] = assay: as above; details: 4-OH-tamoxifen in medium 1 µM; 72 h
In short: as §1

BT-474 [3] = assay: as above; details: 72 h
In short: as §1

ZR-75-1 [4] = assay: as above; details: 72 h
In short: as §1

ZR-75-1 Tam1 [5] = assay: as above; details: 4-OH-tamoxifen in medium 1 µM; 72 h
In short: as §1

MCF-7 [6] = assay: as above; details: 72 h
In short: as §1

BT-474 Tam1 [7] = assay: as above; details: 4-OH-tamoxifen in medium 1 µM; 72 h
In short: as §1

BT-474 Tam2 [8] = assay: as above; details: 4-OH-tamoxifen in medium 1 µM; 72 h
In short: as §1

T-47D Tam1 [9] = assay: as above; details: 4-OH-tamoxifen in medium 1 µM; 72 h
In short: as §1

MCF-7 Tam1 [10] = assay: as above; details: 4-OH-tamoxifen in medium 1 µM; 72 h
In short: as §1

T-47D [11] = assay: as above; details: 72 h
In short: as §1

ZR-75-1 Tam2 [12] = assay: drug sensitivity score (DSS) (DSS (dimensionless)); higher = more sensitive; extreme values may be limits of the assay; details: 4-OH-tamoxifen in medium 1 µM; 72 h
In short: as §1

T-47D Tam2 [13] = assay: as above; details: 4-OH-tamoxifen in medium 1 µM; 72 h
In short: as §1

BT-474 [14] = assay: as above; details: 72 h
In short: as §1

ZR-75-1 [15] = assay: as above; details: 72 h
In short: as §1

ZR-75-1 Tam1 [16] = assay: as above; details: 4-OH-tamoxifen in medium 1 µM; 72 h
In short: as §1

MCF-7 [17] = assay: as above; details: 72 h
In short: as §1

BT-474 Tam1 [18] = assay: as above; details: 4-OH-tamoxifen in medium 1 µM; 72 h
In short: as §1

BT-474 Tam2 [19] = assay: as above; details: 4-OH-tamoxifen in medium 1 µM; 72 h
In short: as §1

T-47D Tam1 [20] = assay: as above; details: 4-OH-tamoxifen in medium 1 µM; 72 h
In short: as §1

MCF-7 Tam1 [21] = assay: as above; details: 4-OH-tamoxifen in medium 1 µM; 72 h
In short: as §1

T-47D [22] = assay: as above; details: 72 h
In short: as §1

Compound	relative IC50 (ZR-75-1 Tam2 [1])	relative IC50 (T-47D Tam2 [2])	relative IC50 (BT-474 [3]; 4-OH-tamoxifen in medium 0 µM)	relative IC50 (BT-474 [3]; 4-OH-tamoxifen in medium 1 µM)	relative IC50 (ZR-75-1 [4]; 4-OH-tamoxifen in medium 0 µM)	relative IC50 (ZR-75-1 [4]; 4-OH-tamoxifen in medium 1 µM)	relative IC50 (ZR-75-1 Tam1 [5])	relative IC50 (MCF-7 [6]; 4-OH-tamoxifen in medium 0 µM)	relative IC50 (MCF-7 [6]; 4-OH-tamoxifen in medium 1 µM)	relative IC50 (BT-474 Tam1 [7])	relative IC50 (BT-474 Tam2 [8])	relative IC50 (T-47D Tam1 [9])	relative IC50 (MCF-7 Tam1 [10])	relative IC50 (T-47D [11]; 4-OH-tamoxifen in medium 0 µM)	relative IC50 (T-47D [11]; 4-OH-tamoxifen in medium 1 µM)	drug sensitivity score (ZR-75-1 Tam2 [12])	drug sensitivity score (T-47D Tam2 [13])	drug sensitivity score (BT-474 [14]; 4-OH-tamoxifen in medium 0 µM)	drug sensitivity score (BT-474 [14]; 4-OH-tamoxifen in medium 1 µM)	drug sensitivity score (ZR-75-1 [15]; 4-OH-tamoxifen in medium 0 µM)	drug sensitivity score (ZR-75-1 [15]; 4-OH-tamoxifen in medium 1 µM)	drug sensitivity score (ZR-75-1 Tam1 [16])	drug sensitivity score (MCF-7 [17]; 4-OH-tamoxifen in medium 0 µM)	drug sensitivity score (MCF-7 [17]; 4-OH-tamoxifen in medium 1 µM)	drug sensitivity score (BT-474 Tam1 [18])	drug sensitivity score (BT-474 Tam2 [19])	drug sensitivity score (T-47D Tam1 [20])	drug sensitivity score (MCF-7 Tam1 [21])	drug sensitivity score (T-47D [22]; 4-OH-tamoxifen in medium 0 µM)	drug sensitivity score (T-47D [22]; 4-OH-tamoxifen in medium 1 µM)
Cc1ccc([N+](=O)[O-])cc1S(=O)(=O)N(C)/N=C/c1cnc2ccc(Br)cn12 [PIK-75 (HCl)]	0.108 µM	0.0826 µM	0.148 µM	0.0486 µM	0.133 µM	0.0945 µM	0.309 µM	0.0332 µM	0.0305 µM	0.0316 µM	0.0587 µM	0.0483 µM	0.0505 µM	0.0332 µM	0.0813 µM	18.9	20.5	21.2	27.2	16.9	16.7	14.9	22.3	26.4	29.8	26.8	25.1	22.6	21.8	15.3
Cn1c(CCCC(=O)O)nc2cc(N(CCCl)CCCl)ccc21 [Bendamustine (hydrochloride hydrate)]	> 10 µM	> 10 µM	> 10 µM	> 10 µM	> 10 µM	> 10 µM	> 10 µM	–	> 10 µM	> 10 µM	> 10 µM	> 10 µM	> 10 µM	> 10 µM	> 10 µM	0	0	0	0	0	0	0	0.159	0	0	0	0	0	0	0
O=C(Nc1cccnc1)N1CCC(Cc2cccc(Oc3ccc(C(F)(F)F)cn3)c2)CC1 [PF-3845]	0.233 µM	0.429 µM	0.245 µM	0.157 µM	0.725 µM	0.179 µM	0.218 µM	0.161 µM	0.14 µM	0.102 µM	0.187 µM	0.295 µM	1.97 µM	0.278 µM	3.62 µM	18.8	13.7	18.1	21.2	10.2	19.7	18.7	16.5	19.2	23.7	20.4	17.5	9.98	11.6	10.7
